In patent publication US8598175B2, “Heteroarylamide pyrimidone derivatives” (Sanofi, priority 2007, dated 2013):

Tests used:
GSK3β = GSK3β (Homo sapiens, UniProt P49841); assay: Inhibitory activity against GSK3β (33P-ATP phosphorylation of prephosphorylated GS1 peptide, two protocols); format: biochemical; settings: first or second protocol not specified
Procedure: Inhibitory Activity of the Medicament of the Present Invention Against GSK3β
Two different protocols can be used.
In a first protocol: 7.5 μM of prephosphorylated GS1 peptide and 10 μM ATP (containing 300,000 cpm of ^33P-ATP) were incubated in 25 mM Tris-HCl, pH 7.5, 0.6 mM DTT, 6 mM MgCl2, 0.6 mM EGTA, 0.05 mg/ml BSA buffer for 1 hour at room temperature in the presence of GSK3beta (total reaction volume: 100 microliters).
In a second protocol: 4.1 μM of prephosphorylated GS1 peptide and 42 μM ATP (containing 260,000 cpm ^33P-ATP) were incubated in 80 mM Mes-NaOH, pH 6.5, 1 mM Mg acetate, 0.5 mM EGTA, 5 mM 2-mercaptoethanol, 0.02% Tween 20, 10% glycerol buffer for 2 hours at room temperature in the presence of GSK3beta.
Inhibitors were solubilized in DMSO (final solvent concentration in the reaction medium, 1%).
The reaction was stopped with 100 microliters of a solution made of 25 g polyphosphoric acid (85% P2O5), 126 ml 85% H3PO4, […] to 500 ml and then diluted to 1:100 before use. An aliquot of the reaction mixture was then transferred to Whatman P81 cation exchange filters and rinsed with the solution described above. Incorporated ^33P radioactivity was determined by liquid scintillation spectrometry.
The phosphorylated GS-1 peptide had the following sequence: NH2-[…](P)EDEE-COOH. SEQ ID NO: 1 (Woodgett, J. R. (1989) Analytical Biochemistry 180, 237-241.

GSK3β, sequence (P49841 whole entry): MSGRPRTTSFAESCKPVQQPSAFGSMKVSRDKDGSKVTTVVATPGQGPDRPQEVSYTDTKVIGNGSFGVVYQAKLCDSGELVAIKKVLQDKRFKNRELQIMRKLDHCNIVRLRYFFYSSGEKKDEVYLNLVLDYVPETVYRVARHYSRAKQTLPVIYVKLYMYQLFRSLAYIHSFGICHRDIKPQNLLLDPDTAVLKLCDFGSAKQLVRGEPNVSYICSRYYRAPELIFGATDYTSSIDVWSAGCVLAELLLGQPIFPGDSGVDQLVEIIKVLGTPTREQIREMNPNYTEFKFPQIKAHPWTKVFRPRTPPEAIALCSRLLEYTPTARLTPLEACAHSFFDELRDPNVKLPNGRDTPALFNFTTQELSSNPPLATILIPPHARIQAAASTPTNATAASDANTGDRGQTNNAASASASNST

IC50 (GSK3β): 5 nM
melting point: 317 to 319 °C
SMILES: Cn1c(CNC(=O)c2ccc3ncccc3n2)nc(-c2ccncn2)cc1=O [compound 4, [1,5]Naphthyridine-2-carboxylic acid (1-methyl-6-oxo-1,6-dihydro-[4,4]bipyrimidinyl-2-ylmethyl)-amide]
